Data reported in US20260217712A1, “SOLID STATE FORMS OF MNK INHIBITORS” (4E Therapeutics, Inc., priority 2023, published 2026).
Converted amounts (≈) assume the structure as drawn. Read-outs that look alike come from different tables or passages of the source.

Assays:
Type in all cases: physicochemical
[1] = Thermodynamic solubility in simulated media and buffers; settings: 25° C./24 h
Description: The thermodynamic solubility for Pattern 11 was determined in 3 simulated media and two buffers. […]

LogD = assay: LogD
[2] = Gravimetric vapor sorption (GVS) and XRPD post-GVS; settings: for GVS reversible water uptake 0-90% RH: 25° C.; for Post GVS XRPD form: after double cycle GVS
Description: Sorption isotherms were obtained using a SMS DVS Intrinsic moisture sorption analyzer, controlled by DVS Intrinsic Control software. The sample temperature was maintained at 25° C. by the instrument controls. The humidity was controlled by mixing streams of dry and wet nitrogen, with a total flow rate of 200 mL/min. The relative humidity was measured by a calibrated Rotronic probe (dynamic range of 1.0-100% RH), located near the sample. The weight change, (mass relaxation) of the sample as a function of % RH was constantly monitored by a microbalance (accuracy±0.005 mg).
(§1) Typically, 5-30 mg of sample was placed in a tared mesh stainless steel basket under ambient conditions. The sample was loaded and unloaded at 40% RH and 25° C. (typical room conditions). A moisture sorption isotherm was performed as outlined below (2 scans per complete cycle). The standard isotherm was performed at 25° C. at 10% RH intervals over a 0-90% RH range. Typically, a double cycle (4 scans) was carried out. Data analysis was carried out within Microsoft Excel using the DVS Analysis Suite.
Sorption isotherms were obtained using a Hiden IGASorp moisture sorption analyser, controlled by Isochema HISorp software. The sample temperature was maintained at 25° C. by a Grant LT ecocool 150 re-circulating water bath. The humidity was controlled by mixing streams of dry and wet nitrogen, with a total flow rate of 250 ml·min-1. The relative humidity was measured by a calibrated Vaisala RH probe (dynamic range of 0-95% RH), located near the sample. The weight change, (mass relaxation) of the sample as a function of % RH was constantly monitored by the microbalance (accuracy±0.001 mg).
as §1, with “Typically, 20-30” for “Typically, 5-30”, “scans giving 1” for “scans per”, “within the Isochema HISorp 2019 software and exported into” for “within”, “Excel to present accordingly.” for “Excel using the DVS Analysis Suite.”

[3] = Static storage at 40° C./75% RH, XRPD and HPLC post storage; settings: for stability to storage at 40° C./75% RH (in words): 40° C./75% RH (elevated temperature and humidity); for HPLC purity post storage at 40° C./75% RH: 7 days
How it was run: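 Solids isolated as counter-ion salts of the compound were stored statically at 40° C./75% RH and then re-examined by XRPD for solid-form changes. Chemical purity after storage was checked on an Agilent HP1100/Infinity II 1260 series HPLC system fitted with a diode array detector and running OpenLAB software.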

[4] = Variable temperature XRPD (VT-XRPD)
Excerpt: XRPD diffractograms were collected on a PANalytical Empyrean diffractometer using Cu Kα radiation (45 kV, 40 mA, λ=1.544398 Å) in reflection geometry. The instrument was fitted with an Anton Paar CHC plus+ stage fitted with graphite/Kapton windows and equipped with air cooling coupled or a low vacuum pump system using an Edwards RV3 pump. A programmable divergence slit (in automatic mode), with a 10 mm fixed incident beam mask, Ni filter and 0.04 rad Soller slits were used on the incident beam. A PIXcel3D detector, placed on the diffracted beam, was fitted with a programmable anti-scatter slit (in automatic mode) and 0.04 rad Soller slits.
For variable temperature (VT-XRPD) experiments the samples were prepared and analyzed in an Anton Paar chromed sample holder. The sample chamber was under ambient atmosphere and a heating/cooling rate of 10° C./min was used with a 2 min isothermal hold before the measurement started. The measurement parameters are as per the standard screening data collection method (detailed above). Measurements were taken at the following temperatures: 25, 80, 170, 250, and 25° C.

- Solubility FaSSGF ([1]; FaSSGF, listed as Structure (I) Pattern 3): 26 µg/mL (≈ 71 µM)
- Solubility FaSSIF ([1]; FaSSIF, listed as Lot B Sample 2): FaSSIF-0.0016 mg/mL
- Solubility FeSSIF ([1]; FeSSIF, listed as Lot B Sample 2): FeSSIF-0.0060 mg/mL
- Solubility pH 2.0 ([1]; pH 2.0 buffer, listed as Lot B Sample 2): pH 2.0-0.012 mg/mL
- Solubility pH 7.4 ([1]; pH 7.4 buffer): pH 7.4-0.001 mg/mL
- logD (LogD): 3.1
- hygroscopicity (in words) [2]: hygroscopic
- GVS reversible water uptake 0-90% RH [2]: 8.4 wt %
- GVS reversible water uptake 0-90% RH ([2]; listed as Lot B Sample 1): 8.4 wt % reversible water uptake
- GVS uptake 80-90% RH ([2]; 80-90% RH): 6.3 wt % uptake 80-90% RH
- Post GVS XRPD form [2]: the solid form was retained
- Post GVS XRPD form ([2]; listed as Lot B Sample 1): Post GVS XRPD: No change in form
- hygroscopicity (in words) ([2]; listed as Lot B): hygroscopic
- hygroscopicity (in words) ([2]; listed as Lot B Sample 1): Material is hygroscopic
- stability to storage at 40° C./75% RH (in words) [3]: good stability to storage
- stability to storage at 40° C./75% RH (in words) ([3]; listed as Lot B): remained unchanged
- HPLC purity post storage at 40° C./75% RH ([3]; 40° C./75% RH, listed as 9-5): 98.5%
- HPLC purity post storage at 40° C./75% RH ([3]; 40° C./75% RH, listed as Lot B Sample 1): 98.8%
- change of chemical purity on storage at 40° C./75% RH (in words) ([3]; 40° C./75% RH, listed as 9-5): small decrease in chemical purity
- VT-XRPD form at 25-80° C. ([4]; 25-80° C.): 25-80° C.: Pattern 3
- VT-XRPD form at 175° C. [4]: Pattern 10 was again observed
- VT-XRPD form at 175° C. ([4]; listed as Lot B Sample 1): 175° C.: Pattern 10
- VT-XRPD form at 250° C. ([4]; 250° C., listed as Lot B Sample 1): 250° C.: Patterns 10 and 11
- VT-XRPD form on cooling to 25° C. ([4]; cooling to 25° C.): Cooling to 25° C.: Patterns 11 and 3
SMILES: Cc1cc(Nc2cc(N)ncn2)c(=O)n2c1C(=O)NC21CCC2(CC2)CC1 [Pattern 3]
